Laboratory results from patent US4861897A, “2-Aryloxyalkylaminobenzoxazoles and 2-aryloxyalkylaminobenzothiazoles” (Ortho Pharmaceutical Corporation, priority 1987, dated 1989).

Tests used:
[1] = system: cAMP stimulated parietal cells; test: Isolated parietal cell assay, inhibition of 14C-aminopyrine accumulation, dibutyryl cAMP stimulated; assay type: cell-based, rabbit; details: Oryctolagus cuniculus, 20 min, Example 48, 37° C., read-out: IC50 vcAMP (inhibition of 14C-AP accumulation in cAMP stimulated parietal cells)
Method: (§1) Isolated Parietal Cell Assay
(§2) The isolated parietal cell assay was conducted using the procedures of Batzri, S. et al., Biochemica et Biophysica Acta 508, 328 (1978) and Soll, A. H. Am. J. Physiol. 238, G366 (1980). Basically, parietal cells were isolated from the fundic mucosa of rabbit stomachs by a four-stage collagenase digestion process. The supernatant fractions from the last two stages of this process contain the individual parietal cells. This cell suspension was centrifuged and reconstituted in a modified Hank's buffer to contain 1-2×10^6 cells/ml. […] This accumulation was stimulated by histamine and was blocked by H2 antagonists. The cells were incubated with 0.4-0.5×10^6 cpm ^14 C-AP, with various concentrations of histamine as a stimulant, 1×10^-5 M isobutylmethylxanthine, and the test compound added in a 20 μl volume of buffer or DMSO. The flasks were incubated in a shaking water bath at 37° C. for 20 minutes. Two aliquots were then taken from each flask and cell pellets were collected by centrifugation. The pellets were solubilized with Protosol (New England Nuclear) and radioactivity determined by liquid scintillation spectrometry. Data is presented as the IC50 vhist, the concentration of compound required to inhibit ^14 C-AP accumulation in the histamine stimulated parietal cell by 50%. When dibutyryl cAMP was used to stimulate the cells instead of histamine, a similar inhibition of ^14 C-AP accumulation was measured and the data are presented as the IC50 vcAMP, the concentration required to inhibit ^14 C-AP accumulation in the cAMP stimulated parietal cells by 50%.

[2] = target: T1, parietal cell H^+ K^+ ATPase (Oryctolagus cuniculus, UniProt P27112); test: Inhibition of parietal cell H+ K+ ATPase; assay type: biochemical, New Zealand white rabbits; details: Example 49; for IC50: given as "50% @ x μM", read-out: % Inhibition at Concentration (H+ K+ ATPase): concentration given for 50% inhibition; for inhibition at 100 µM: @ 10^-4 M, read-out: % Inhibition at Concentration (H+ K+ ATPase)
T1 construct: determined in fundic mucosa from New Zealand white rabbits which were homogenized; from tissue; host or cells: fundic mucosa of New Zealand white rabbits, homogenized; membrane protein
T1 sequence (P27112 2-1035 limits assumed): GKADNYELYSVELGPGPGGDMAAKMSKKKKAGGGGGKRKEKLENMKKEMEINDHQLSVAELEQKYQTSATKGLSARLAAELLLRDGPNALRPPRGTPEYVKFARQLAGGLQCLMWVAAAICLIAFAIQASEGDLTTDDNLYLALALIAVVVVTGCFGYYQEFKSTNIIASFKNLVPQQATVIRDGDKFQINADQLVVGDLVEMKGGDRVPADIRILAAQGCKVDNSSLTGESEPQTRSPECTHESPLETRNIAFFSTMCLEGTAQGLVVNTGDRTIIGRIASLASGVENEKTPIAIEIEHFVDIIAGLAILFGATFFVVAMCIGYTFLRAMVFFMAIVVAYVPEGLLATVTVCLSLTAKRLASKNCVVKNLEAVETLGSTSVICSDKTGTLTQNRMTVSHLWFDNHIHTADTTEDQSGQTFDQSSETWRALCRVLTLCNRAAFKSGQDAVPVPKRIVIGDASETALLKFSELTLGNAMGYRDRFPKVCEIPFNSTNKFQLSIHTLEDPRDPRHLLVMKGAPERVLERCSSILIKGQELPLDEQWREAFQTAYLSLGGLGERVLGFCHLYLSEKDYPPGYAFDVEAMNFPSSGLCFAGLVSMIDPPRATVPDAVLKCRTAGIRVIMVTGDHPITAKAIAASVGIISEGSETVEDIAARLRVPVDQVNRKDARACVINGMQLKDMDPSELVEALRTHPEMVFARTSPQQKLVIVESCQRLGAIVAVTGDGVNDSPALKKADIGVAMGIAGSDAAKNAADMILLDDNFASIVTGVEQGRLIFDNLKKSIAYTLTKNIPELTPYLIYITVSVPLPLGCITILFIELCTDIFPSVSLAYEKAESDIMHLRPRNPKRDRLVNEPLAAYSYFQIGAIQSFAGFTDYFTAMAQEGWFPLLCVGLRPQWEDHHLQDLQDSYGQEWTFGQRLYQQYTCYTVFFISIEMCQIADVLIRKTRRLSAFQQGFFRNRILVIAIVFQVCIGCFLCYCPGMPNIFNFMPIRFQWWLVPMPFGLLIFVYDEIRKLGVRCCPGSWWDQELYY
T1 sequence (P18597 whole entry partner): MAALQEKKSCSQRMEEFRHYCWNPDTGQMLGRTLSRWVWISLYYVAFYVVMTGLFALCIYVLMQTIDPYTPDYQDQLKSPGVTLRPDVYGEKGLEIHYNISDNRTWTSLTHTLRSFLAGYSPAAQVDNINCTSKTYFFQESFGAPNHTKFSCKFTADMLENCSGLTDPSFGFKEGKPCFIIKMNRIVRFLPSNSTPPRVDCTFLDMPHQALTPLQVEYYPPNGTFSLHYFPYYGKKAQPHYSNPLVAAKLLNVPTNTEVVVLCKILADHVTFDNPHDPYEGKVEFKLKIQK
Method: Inhibition of Parietal Cell H^+ K^+ ATPase
The activity was measured in a 1 ml incubation volume containing 50 mM Tris pH 7.4, 2 mM MgCl2, 2 mM Na2 ATP, with or without 20 mM KCl and vehicle control (dimethylsulfoxide) or test compound added in a 0.02 ml volume. Typically, 20-50 μg membrane protein was added and the tubes were preincubated with test compound for 10 minutes at 37° C. Substrate, Na2 ATP, was then added and the tubes were incubated for another 15 minutes at 37° C. The reaction was stopped by the addition of 1 ml 14% trichloroacetic acid and the samples were centrifuged at 2,000 xg for 10 minutes. The amount of inorganic phosphate present in an aliquot of supernatant was determined. H^+ K^+ ATPase activity was determined after correcting for the basal (Mg^++ only) enzyme activity present in the membrane preparation.

acid output = test: Gastric secretion, acid output in pylorus ligated rats; assay type: in vivo, male Charles River Sprague Dawley derived rats; details: Example 50, i.d. or s.c., four hours after pylorus ligation, compared to control; for response vs control in vivo at 40 mg/kg: @ 40 mpK; for response vs control in vivo at 20 mg/kg: @ 20 mpK; for % Acid Secreted at mpK: @ 10 mpK
Method: The inhibitory activity of the compounds on acid output was tested using pylorus ligation in a modification of the procedure of Shay, H. et al., Gastroenterology 26, 906 (1954). Basically, male Charles River Sprague Dawley derived rats weighing 150-300 grams were deprived of food but not water for 18-24 hours prior to use. Water was withheld during the experiment, however. The rats were weighed, anesthetized with ether and the pylorus ligated according to the method of Shay et al., supra. Treatment or vehicle control was then administered intraduodenally (i.d.) or subcutaneously (s.c.). Rats were housed two/cage and sacrificed with CO2 four hours after ligation. The stomachs were removed, rinsed, and contents emptied into a graduated centrifuge tube. The tubes were centrifuged, the volume of gastric juice recorded, and any samples obviously contaminated by feces, food or blood were eliminated. A 1 ml aliquot of gastric juice was titrated with 0.1N NaOH to a pH of 7.0-7.4. The volume of gastric juice secreted, the acid concentration, and the product of the volume times the concentration, i.e., the total amount of acid secreted, were measured.

[3] = system: histamine stimulated parietal cell; test: Isolated parietal cell assay, inhibition of 14C-aminopyrine accumulation, histamine stimulated; assay type: cell-based, rabbit; details: Oryctolagus cuniculus, 20 min, Example 48, 37° C., read-out: IC50 vhist (inhibition of 14C-AP accumulation in histamine stimulated parietal cell)
Method: as §1, §2

[4] = Rattus norvegicus, 4 h, read-out: % Acid Secreted at mpK

IC50 [1]	IC50 [3]	inhibition at 100 µM [2]	SMILES	IC50 [2]	response vs control in vivo at 40 mg/kg (acid output; [4])	response vs control in vivo at 20 mg/kg (acid output; [4])	% Acid Secreted at mpK (acid output)	response vs control in vivo at 5 mg/kg (acid output; Rattus norvegicus, 4 h, @ 5 mpK, read-out: % Acid Secreted at mpK)
240 nM	200 nM	–	CCCN(CCC)CCCOc1cccc(/C=C/c2nc3ccccc3o2)c1 [Example 3, (E)-2-[2-(3-Dipropylaminopropoxyphenyl)ethyenyl]benzoxazole]	29 µM	–	49%	–	–
460 nM	390 nM	19%	C(=C\c1nc2ccccc2s1)/c1ccc(OCCn2ccnc2)cc1 [Example 39]	–	32%	–	–	–
100 nM	140 nM	–	CCCN(CCC)CCCOc1c(C)cc(/C=C/c2nc3ccccc3o2)cc1C [Example 47]	15 µM	–	90%	–	–
3400 nM	1700 nM	33%	COc1ccccc1N1CCN(CCCOc2ccc(/C=C/c3nc4ccccc4s3)cc2)CC1 [Example 31]	–	–	11%	–	–
250 nM	290 nM	–	C(=C\c1nc2ccccc2o1)/c1ccc(OCCCn2ccnc2)cc1 [Example 10, (E)-2-[2-(4-(1H-Imidazol-1-yl)propoxyphenyl)ethenyl]benzoxazole]	64 µM	–	26%	–	–
330 nM	200 nM	61%	CCCCN(CCCC)CCCOc1cccc(/C=C/c2nc3ccccc3s2)c1 [Example 25]	–	–	40%	–	–
50 nM	80 nM	–	CCCCN(CCCC)CCCOc1ccc(/C=C/c2nc3ccc(OC)cc3o2)cc1 [Example 16, (E)-2-[2-(4-Dibutylaminopropoxyphenyl)ethenyl]-6-methoxybenzoxazole]	26 µM	64%	–	–	–

The remaining lines, values behind:

SMILES	IC50 [1]	IC50 [3]	inhibition at 100 µM [2]	IC50 [2]	response vs control in vivo at 40 mg/kg (acid output; [4])	response vs control in vivo at 20 mg/kg (acid output; [4])	% Acid Secreted at mpK (acid output)	response vs control in vivo at 5 mg/kg (acid output; Rattus norvegicus, 4 h, @ 5 mpK, read-out: % Acid Secreted at mpK)
C(=C\c1nc2ccccc2o1)/c1ccc(OCCCCN2CCCC2)cc1 [Example 23, (E)-2-[2-(4-Pyrrolinobutoxyphenyl)ethenyl]benzoxazole]	240 nM	170 nM	–	84 µM	24%	–	–	–
CCCN(CCC)CCCCOc1cccc(/C=C/c2nc3ccccc3s2)c1 [Example 26, (E)-2-[2-(3-Dipropylaminobutoxyphenyl)ethenyl]benzothiazole]	180 nM	90 nM	–	19 µM	80%	42%	–	–
CCCN(CCC)CCCCOc1ccc(/C=C/c2nc3ccccc3o2)cc1 [Example 20]	110 nM	390 nM	–	21 µM	–	90%	59%	–
CCCN(CCC)CCCOc1ccc(-c2nc3ccccc3s2)cc1 [Example 44, 2-(4-Dipropylaminopropoxyphenyl)benzothiazole]	140 nM	210 nM	67%	–	–	42%	–	–
C(=C\c1nc2ccccc2s1)/c1cccc(OCCCCn2ccnc2)c1 [Example 27]	210 nM	110 nM	–	4.7 µM	83%	42%	–	–
CCCN(CCC)CCCCOc1ccc(/C=C/c2nc3ccccc3s2)cc1 [Example 38]	120 nM	30 nM	–	21 µM	93%	–	–	–
CCCN(CCC)CCCCOc1ccc(/C=C/c2nc3ccccc3o2)cc1Cl [Example 45, (E)-2-[2-(3-Chloro-4-dipropylaminobutoxyphenyl]ethenyl]benzoxazole]	740 nM	800 nM	–	17.5 µM	–	42%	–	–
CCCN(CCC)CCCOc1ccc(/C=C/c2nc3ccccc3o2)cc1 [Example 9, (E)-2-[2-(4-Dipropylaminopropoxyphenyl)ethenyl]benzoxazole]	350 nM	220 nM	–	25 µM	97%	77%	29%	–
CCCCN(CCCC)CCCOc1cccc(/C=C/c2nc3ccccc3o2)c1 [Example 1]	140 nM	270 nM	49%	–	–	78%	52%	44%
CCCN(CCC)CCCOc1c(OC)cc(/C=C/c2nc3ccccc3o2)cc1OC [Example 46, (E)-2-[2-(3,5-Dimethoxy-4-dipropylaminopropoxyphenyl)ethenyl]benzoxazole]	360 nM	150 nM	–	33 µM	–	46%	–	–
CCCN(CCC)CCCCOc1cccc(/C=C/c2nc3ccccc3o2)c1 [Example 5]	310 nM	120 nM	–	14 µM	–	74%	25%	–
C(=C\c1nc2ccccc2o1)/c1ccc(OCCCCn2ccnc2)cc1 [Example 21]	330 nM	270 nM	–	30 µM	–	14%	–	–
CCCCN(CCCC)CCOc1ccc(/C=C/c2nc3ccccc3s2)cc1 [Example 37, (E)-2-[2-(4-Dibutylaminoethoxyphenyl)ethenyl]benzothiazole]	600 nM	430 nM	43%	–	–	14%	–	–
